From PMC5874699, “Antimicrobial and Antibiofilm Activity of UP-5, an Ultrashort Antimicrobial Peptide Designed Using Only Arginine and Biphenylalanine” (Pharmaceuticals, 2018)

How the values were obtained:
S. aureus (ATCC 29213) = assay: Broth microdilution checkerboard, UP-5 with antibiotics; type: cell-based, Staphylococcus aureus; conditions: for Antibiotics Reduction in MIC (%) / Antibiotics MIC in Combination / FIC Index: S. aureus ATCC 29213; for Antibiotics Reduction in MIC (%): antibiotic MIC in combination with UP-5 compared to MIC alone; for Antibiotics MIC in Combination: antibiotic in combination with UP-5, checkerboard, triplicate; for Effect of the combination according to FIC value: S. aureus (ATCC 29213); for Effect of the combination according to FIC value / FIC Index: antibiotic-UP-5 combination; for FIC Index: checkerboard
Text: (§1) All bacterial susceptibility, biofilm, and synergistic assays of peptides, antibiotics, and peptides-antibiotics combinations used bacterial strains obtained from the American Type Tissue Culture Collection (ATCC, Manassas, VA, USA) that states the mechanism of resistance for each strain according to ATCC number. Gram-positive bacteria were represented by five strains, the wild type strain Staphylococcus aureus (ATCC 29213) and methicillin-resistant S. aureus (MRSA) (ATCC 33591) in addition to clinically isolated strains S. aureus (ATCC BAA-41& 43300) and Enterococcus faecalis (ATCC BAA-2316). The Gram-negative bacteria strains were represented by wild type strains of Escherichia coli (ATCC 25922 & 35218) and Pseudomonas aeruginosa (ATCC 27853) as well as the clinically isolated multidrug-resistant strain P. aeruginosa (ATCC BAA-2114). The bacteria were cultured onto Muller Hinton Agar (Scharlab, S.L, Barcelona, Spain). Mueller Hinton Broth (Oxoid Ltd., Basingstoke, UK) was used to prepare all bacterial suspensions and to dissolve the peptides and the antibiotics. The assay was performed in sterile 96-well polypropylene microtiter plates.
(§2) According to the broth microdilution checkerboard technique, the MIC and MBC values of peptide-antibiotics combinations against wild type and multidrug resistant bacterial strains were determined. Serial concentrations of peptide and each antibiotic were prepared in the range of 0.005–100 μM. In each well of a 96-well microtiter plate, 25 μL of each peptide concentration were added to 25 μL of each antibiotic concentration which is followed by adding 50 μL of diluted bacterial suspension (10^6 CFU/mL) to each well. The prepared concentrations of peptide and each antibiotic were arranged into rows and columns, respectively, in a 96-well microtiter plate according the checkerboard technique. Then as described previously (see Section 2.4.1), the procedure was followed. All MIC and MBC determinations of all assays were made in triplicate.
(§3) The fractional inhibitory concentration (FIC) is defined as the inhibitory concentration of the antimicrobial combination divided by that of the single antimicrobial component. To calculate FIC index for peptide-antibiotic combinations, the following equation was used:(1) FIC index=MIC of drug X in combination/MIC of drug X alone+MIC of drug Y in combination/MIC of drug Y alone
(§4) The FIC indices were interpreted as follows: ≤0.5: synergistic activity, 0.5–1: additive activity, 1–4 indifferent, >4: antagonism. Interpretation and assessment of the FIC indices were performed according to the broth microdilution checkerboard technique.

S. aureus (ATCC BAA-41) [1] = assay: as above; type: cell-based, Staphylococcus aureus; conditions: for Antibiotics MIC in Combination / Antibiotics Reduction in MIC (%) / FIC Index: S. aureus ATCC BAA-41; for Antibiotics MIC in Combination: antibiotic in combination with UP-5, checkerboard, triplicate; for Effect of the combination according to FIC value: S. aureus (ATCC BAA-41); for Effect of the combination according to FIC value / FIC Index: antibiotic-UP-5 combination; for Antibiotics Reduction in MIC (%): antibiotic MIC in combination with UP-5 compared to MIC alone; for FIC Index: checkerboard
Text: as §1, §2, §3, §4

S. aureus (ATCC 33591) = assay: as above; type: cell-based, Staphylococcus aureus; conditions: for Effect of the combination according to FIC value: S. aureus (ATCC 33591); for Effect of the combination according to FIC value / FIC Index: antibiotic-UP-5 combination; for Antibiotics Reduction in MIC (%) / Antibiotics MIC in Combination / FIC Index: S. aureus ATCC 33591; for Antibiotics Reduction in MIC (%): antibiotic MIC in combination with UP-5 compared to MIC alone; for Antibiotics MIC in Combination: antibiotic in combination with UP-5, checkerboard, triplicate; for FIC Index: checkerboard
Text: as §1, §2, §3, §4

S. aureus (ATCC 43300) [2] = assay: as above; type: cell-based, Staphylococcus aureus; conditions: for Effect of the combination according to FIC value: S. aureus (ATCC 43300); for Effect of the combination according to FIC value / FIC Index: antibiotic-UP-5 combination; for Antibiotics MIC in Combination: antibiotic in combination with UP-5, checkerboard, triplicate; for FIC Index: checkerboard
Text: as §1, §2, §3, §4

[3] = test system: P. aeruginosa (ATCC BAA-2114); assay: as above; type: cell-based, Pseudomonas aeruginosa; conditions: for Effect of the combination according to FIC value: P. aeruginosa (ATCC 2114 as printed); for Effect of the combination according to FIC value / FIC Index: antibiotic-UP-5 combination; for Antibiotics Reduction in MIC (%) / Antibiotics MIC in Combination / FIC Index: P. auroginosa ATCC BAA-2114; for Antibiotics Reduction in MIC (%): antibiotic MIC in combination with UP-5 compared to MIC alone; for Antibiotics MIC in Combination: antibiotic in combination with UP-5, checkerboard, triplicate; for FIC Index: checkerboard
Text: as §1, §2, §3, §4

[4] = test system: Staphylococcus aureus (ATCC 29213); type: cell-based; conditions: S. aureus ATCC 29213, antibiotic alone, triplicate; for Antibiotics MBC Alone: 99.9% killing; for Antibiotics MIC Alone: microbroth dilution
Text: as §1
(§5) All bacterial susceptibility assays were conducted according to the microbroth dilution method outlined by the Clinical and Laboratory Standards Institute (CLSI) guidelines.
(§6) Briefly, pre-sterilized MHB was used as a growth medium for organisms obtained from stock media with glycerol. Bacterial cells were grown overnight in MHB and diluted to 10^6 CFU/mL in the same medium prior to use. For peptide, serial concentrations in the range of 0.5–100 μM were prepared. Then, 50 μL of each peptide concentration and 50 µL of diluted bacterial suspension were added to each well of a 96-well microtiter plate. Peptide solutions were prepared by dissolving the peptide in sterile MHB. Then, the plates were incubated overnight in a humidified atmosphere, and at 37 °C. Bacterial growth was determined by measuring the optical density (OD) at λ = 600 nm using an ELISA plate reader (Epoch, BioTek, Winooski, VT, USA) and the minimum inhibitory concentration (MIC) was determined.
(§7) As described in the previous section, the MIC and MBC values of antibiotics employed in this study were determined against subjected bacterial strains via preparing different concentrations of each antibiotic.

[5] = test system: methicillin-resistant S. aureus (MRSA) (ATCC 33591); assay: MIC/MBC, microbroth dilution (CLSI); type: cell-based, Staphylococcus aureus; conditions: S. aureus ATCC 33591, antibiotic alone, triplicate; for Antibiotics MBC Alone: 99.9% killing; for Antibiotics MIC Alone: microbroth dilution
Text: as §1, §5, §6, §7

[6] = test system: P. aeruginosa (ATCC BAA-2114); type: cell-based, Pseudomonas aeruginosa; conditions: P. auroginosa ATCC BAA-2114, antibiotic alone, triplicate; for Antibiotics MBC Alone: 99.9% killing; for Antibiotics MIC Alone: microbroth dilution
Text: as §1, §5, §6, §7

S. aureus (ATCC BAA-41) [7] = type: cell-based, Staphylococcus aureus; conditions: S. aureus ATCC BAA-41, antibiotic alone, triplicate; for Antibiotics MBC Alone: 99.9% killing; for Antibiotics MIC Alone: microbroth dilution
Text: as §1, §5, §6, §7

S. aureus (ATCC 43300) [8] = type: cell-based, Staphylococcus aureus; conditions: S. aureus ATCC 43300, antibiotic alone, triplicate; for Antibiotics MBC Alone: 99.9% killing; for Antibiotics MIC Alone: microbroth dilution
Text: as §1, §5, §6, §7

Antibiotics Reduction in MIC (%) (S. aureus (ATCC 29213)) | Antibiotics MIC in Combination (S. aureus (ATCC BAA-41) [1]) | Antibiotics MIC Alone [6] | Structure (SMILES) | Antibiotics MIC in Combination (S. aureus (ATCC 29213)) | Effect of the combination according to FIC value (S. aureus (ATCC 33591)) | Antibiotics Reduction in MIC (%) (S. aureus (ATCC 33591)) | Effect of the combination according to FIC value (S. aureus (ATCC 43300) [2]) | Antibiotics MIC in Combination (S. aureus (ATCC 43300) [2]; S. aureus ATCC 43300) | Effect of the combination according to FIC value [3] | Antibiotics Reduction in MIC (%) [3] | Antibiotics MIC in Combination [3] | Antibiotics MBC Alone [4] | Antibiotics MIC Alone [4] | Antibiotics MBC Alone [5] | Antibiotics MIC Alone [5] | Antibiotics MBC Alone [6] | Antibiotics MBC Alone (S. aureus (ATCC BAA-41) [7]) | Antibiotics MIC Alone (S. aureus (ATCC BAA-41) [7]) | Antibiotics MBC Alone (S. aureus (ATCC 43300) [8]) | Antibiotics MIC Alone (S. aureus (ATCC 43300) [8]) | other results
<50% | 20 µM | > 500 µM | CC1(C)S[C@@H]2[C@H](NC(=O)[C@H](N)c3ccccc3)C(=O)N2[C@H]1C(=O)O [Ampicillin, ampicillin] | 2.5 µM | synergistic (≤0.5: synergistic activity) | 85.3% | additive (0.5–1: additive activity) | 2.5 µM | additive (0.5–1: additive activity) | >50% | 250 µM | 2.5 µM | 2.5 µM | 85 µM | 85 µM | > 500 µM | 40 µM | 40 µM | 20 µM | 20 µM | –
90% | 10 µM | 12 µM | C[C@H]1COc2c(N3CCN(C)CC3)c(F)cc3c(=O)c(C(=O)O)cn1c23 [Levofloxacin, levofloxacin] | 0.05 µM | synergistic (≤0.5: synergistic activity) | 87.5% | synergistic (≤0.5: synergistic activity) | 5 µM | additive (0.5–1: additive activity) | 58.3% | 5 µM | 0.5 µM | 0.5 µM | 10 µM | 10 µM | 12 µM | 10 µM | 10 µM | 20 µM | 20 µM | Effect of the combination according to FIC value (S. aureus (ATCC 29213)): synergistic (≤0.5: synergistic activity); Antibiotics Reduction in MIC (%) (S. aureus (ATCC 29213); listed as levofloxacin): 87.5%; FIC Index (S. aureus (ATCC 29213)): 0.11; Effect of the combination according to FIC value (S. aureus (ATCC BAA-41) [1]): indifferent (1–4 indifferent); Antibiotics Reduction in MIC (%) (S. aureus (ATCC BAA-41) [1]): <50%; FIC Index (S. aureus (ATCC BAA-41) [1]): 2; Antibiotics Reduction in MIC (%) (S. aureus (ATCC 33591); listed as levofloxacin): 90%; Antibiotics MIC in Combination (S. aureus (ATCC 33591)): 1.25 µM; FIC Index (S. aureus (ATCC 33591)): 0.13; FIC Index (S. aureus (ATCC 43300) [2]; S. aureus ATCC 43300): 0.25; FIC Index [3]: 0.78

Structure (SMILES) | Antibiotics Reduction in MIC (%) (S. aureus (ATCC 29213)) | Antibiotics MIC in Combination (S. aureus (ATCC BAA-41) [1]) | Antibiotics MIC Alone [6] | Antibiotics MIC in Combination (S. aureus (ATCC 29213)) | Effect of the combination according to FIC value (S. aureus (ATCC 33591)) | Antibiotics Reduction in MIC (%) (S. aureus (ATCC 33591)) | Effect of the combination according to FIC value (S. aureus (ATCC 43300) [2]) | Antibiotics MIC in Combination (S. aureus (ATCC 43300) [2]; S. aureus ATCC 43300) | Effect of the combination according to FIC value [3] | Antibiotics Reduction in MIC (%) [3] | Antibiotics MIC in Combination [3] | Antibiotics MBC Alone [4] | Antibiotics MIC Alone [4] | Antibiotics MBC Alone [5] | Antibiotics MIC Alone [5] | Antibiotics MBC Alone [6] | Antibiotics MBC Alone (S. aureus (ATCC BAA-41) [7]) | Antibiotics MIC Alone (S. aureus (ATCC BAA-41) [7]) | Antibiotics MBC Alone (S. aureus (ATCC 43300) [8]) | Antibiotics MIC Alone (S. aureus (ATCC 43300) [8]) | other results
O=C(N[C@H](CO)[C@H](O)c1ccc([N+](=O)[O-])cc1)C(Cl)Cl [Chloramphenicol, chloramphenicol] | – | 7.5 µM | 200 µM | 10 µM | additive (0.5–1: additive activity) | 50% | additive (0.5–1: additive activity) | 7.5 µM | synergistic (≤0.5: synergistic activity) | 93.7% | 12.5 µM | 30 µM | 20 µM | 150 µM | 130 µM | 325 µM | 30 µM | 25 µM | 20 µM | 15 µM | Effect of the combination according to FIC value (S. aureus (ATCC 29213)): additive (0.5–1: additive activity); FIC Index (S. aureus (ATCC 29213)): 0.75; Effect of the combination according to FIC value (S. aureus (ATCC BAA-41) [1]): additive (0.5–1: additive activity); Antibiotics Reduction in MIC (%) (S. aureus (ATCC BAA-41) [1]): 70%; FIC Index (S. aureus (ATCC BAA-41) [1]): 0.8; Antibiotics MIC in Combination (S. aureus (ATCC 33591)): 65 µM; FIC Index (S. aureus (ATCC 33591)): 1; FIC Index (S. aureus (ATCC 43300) [2]; S. aureus ATCC 43300): 1; FIC Index [3]: 0.24
CC[C@H]1OC(=O)[C@H](C)[C@@H](O[C@H]2C[C@@](C)(OC)[C@@H](O)[C@H](C)O2)[C@H](C)[C@@H](O[C@@H]2O[C@H](C)C[C@H](N(C)C)[C@H]2O)[C@](C)(O)C[C@@H](C)C(=O)[C@H](C)[C@@H](O)[C@]1(C)O [Erythromycin, erythromycin] | <50% | – | – | 0.5 µM | – | <50% | – | 100 µM | additive (0.5–1: additive activity) | 60% | 50 µM | 1.5 µM | 0.5 µM | 10 µM | 8 µM | 150 µM | 400 µM | 350 µM | 150 µM | 100 µM | Antibiotics Reduction in MIC (%) (S. aureus (ATCC BAA-41) [1]): 64.3%; Antibiotics MIC in Combination (S. aureus (ATCC 33591)): 8 µM; Antibiotics Reduction in MIC (%) (S. aureus (ATCC 43300) [2]; S. aureus ATCC 43300, antibiotic MIC in combination with UP-5 compared to MIC alone): <50%
